In patent publication US10899753B2, “Inhibiting agents for Bruton's tyrosine kinase” (BIOGEN MA INC., priority 2018, dated 2021):

Legend:
BTK [1] = target: T1, BTK (Homo sapiens (Human), UniProt Q06187); assay: In Vitro BTK Kinase Assay: BTK-POLYGAT-LS ASSAY; format: biochemical; conditions: fluorescein-labeled polyGAT peptide 100 nM, BTK enzyme 0.25 nM, 30 minutes, TRF
Procedure: In Vitro BTK Kinase Assay: BTK-POLYGAT-LS ASSAY
The purpose of the BTK in vitro assay is to determine compound potency against BTK through the measurement of IC50. […] For a typical assay, a […] aliquot of a ATP/peptide master mix (final concentration; ATP […], polyGAT 100 nM) in kinase buffer (10 mM Tris-HCl pH 7.5, 10 mM MgCl2, 200 μM Na3PO4, 5 mM DTT, 0.01% Triton X-100, and 0.2 mg/ml casein) is added to each well. […] The assay is incubated for 30 minutes before being stopped with 28 μL of a 50 mM EDTA solution. […] The plate is covered and incubated for 45 minutes at room temperature. Time resolved fluorescence (TRF) on Molecular Devices M5 (332 nm excitation; 488 nm emission; 518 nm fluorescein emission) is measured.

BTK [2] = target: T1, BTK; assay: In Vitro PD Assay in Human Whole Blood (pBTK assay); format: cell-based; conditions: human heparinized whole blood, 37° C. for 30 min, total BTK capture and phosphotyrosine detection (ECL)
Procedure: In Vitro PD Assay in Human Whole Blood
Human heparinized venous blood was purchased from Bioreclamation, Inc. or SeraCare Life Sciences and shipped overnight. Whole blood was aliquoted into 96-well plate and “spiked” with serial dilutions of test compound in DMSO or with DMSO without drug. The final concentration of DMSO in all wells was 0.1%. The plate was incubated at 37° C. for 30 min. Lysis buffer containing protease and phosphatase inhibitors was added to the drug-containing samples and one of the DMSO-only samples (+PPi, high control), while lysis buffer containing protease inhibitors was added to the other DMSO-only samples (−PPi, low control). All of the lysed whole blood samples were subjected to the total BTK capture and phosphotyrosine detection method described in US20160311802, incorporated herein by reference.

T1 sequence (Q06187 whole entry): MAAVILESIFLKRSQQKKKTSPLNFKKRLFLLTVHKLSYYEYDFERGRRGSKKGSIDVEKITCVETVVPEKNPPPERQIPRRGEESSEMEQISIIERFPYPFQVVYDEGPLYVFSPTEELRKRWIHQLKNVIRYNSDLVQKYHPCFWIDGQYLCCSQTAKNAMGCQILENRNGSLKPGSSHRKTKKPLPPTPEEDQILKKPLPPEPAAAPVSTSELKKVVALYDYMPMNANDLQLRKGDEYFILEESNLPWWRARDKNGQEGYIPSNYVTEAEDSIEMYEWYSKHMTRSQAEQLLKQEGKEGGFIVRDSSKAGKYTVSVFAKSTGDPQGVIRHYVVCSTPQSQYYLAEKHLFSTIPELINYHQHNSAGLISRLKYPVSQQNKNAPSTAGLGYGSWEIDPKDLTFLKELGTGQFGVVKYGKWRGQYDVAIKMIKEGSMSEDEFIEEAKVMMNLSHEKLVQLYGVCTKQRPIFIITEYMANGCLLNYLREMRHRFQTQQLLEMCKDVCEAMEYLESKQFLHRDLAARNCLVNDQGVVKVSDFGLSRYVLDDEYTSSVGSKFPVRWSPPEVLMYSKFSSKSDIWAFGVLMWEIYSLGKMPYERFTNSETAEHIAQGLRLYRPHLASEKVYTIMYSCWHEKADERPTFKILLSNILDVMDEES

SMILES | IC50 (BTK [1]) [nM] | IC50 (BTK [2]) [nM]
Cc1c(CNC(=O)c2nc(C3(CF)CC3)no2)ccc(-c2ncnc(Nc3ccn(C)n3)n2)c1F [Compound 46, N-(3-fluoro-2-methyl-4-(4-((1-methyl-1H-pyrazol-3-yl)amino)-1,3,5-triazin-2-yl)benzyl)-3-(1-(fluoromethyl)cyclopropyl)-1,2,4-oxadiazole-5-carboxamide] | 1 to 10 | 500 to 10000
Cc1c([C@@H](C)NC(=O)c2nc(C(C)(C)C)no2)ccc(-c2ncnc(Nc3ccn(C)n3)n2)c1F [Compound 72, (R)-3-(tert-butyl)-N-(1-(3-fluoro-2-methyl-4-(4-((1-methyl-1H-pyrazol-3-yl)amino)-1,3,5-triazin-2-yl)phenyl)ethyl)-1,2,4-oxadiazole-5-carboxamide] | < 1 | 100 to 500
Cc1c(CNC(=O)c2noc(C(C)(C)C)n2)ccc(-c2ncnc(Nc3ccn(C)n3)n2)c1F [Compound 9, 5-(tert-butyl)-N-(3-fluoro-2-methyl-4-(4-((1-methyl-1H-pyrazol-3-yl)amino)-1,3,5-triazin-2-yl)benzyl)-1,2,4-oxadiazole-3-carboxamide] | < 1 | 100 to 500
Cc1cc(-c2ncnc(Nc3cnn(C)c3)n2)ccc1CNC(=O)c1cc(C(C)(C)C)no1 [Compound 108, 3-(tert-butyl)-N-(2-methyl-4-(4-((1-methyl-1H-pyrazol-4-yl)amino)-1,3,5-triazin-2-yl)benzyl)isoxazole-5-carboxamide] | < 1 | 100 to 500
Cc1cc(-c2ncnc(Nc3cnn(C)c3)n2)ccc1CNC(=O)c1cnn(C(C)(C)C)c1 [Compound 37, 1-(tert-butyl)-N-(2-methyl-4-(4-((1-methyl-1H-pyrazol-4-yl)amino)-1,3,5-triazin-2-yl)benzyl)-1H-pyrazole-4-carboxamide] | < 1 | 100 to 500
Cn1cc(Nc2ncnc(-c3ccc(CNC(=O)c4nc(C(C)(C)C)no4)c(Cl)c3)n2)cn1 [Compound 16, 3-(tert-butyl)-N-(2-chloro-4-(4-((1-methyl-1H-pyrazol-4-yl)amino)-1,3,5-triazin-2-yl)benzyl)-1,2,4-oxadiazole-5-carboxamide] | < 1 | 100 to 500
Cn1cc(Nc2ncnc(-c3ccc4c(c3)CCCC[C@H]4NC(=O)c3noc(C(C)(C)C)n3)n2)cn1 [Compound 33, 5-tert-butyl-N-[(5R)-2-[4-[(1-methylpyrazol-4-yl)amino]-1,3,5-triazin-2-yl]-6,7,8,9-tetrahydro-5H-benzo[7]annulen-5-yl]-1,2,4-oxadiazole-3-carboxamide] | < 1 | < 100
Cc1c(CNC(=O)c2cn(C(C)(C)C)nn2)ccc(-c2ncnc(Nc3cnn(C)c3)n2)c1F [Compound 105, 1-(tert-butyl)-N-(3-fluoro-2-methyl-4-(4-((1-methyl-1H-pyrazol-4-yl)amino)-1,3,5-triazin-2-yl)benzyl)-1H-1,2,3-triazole-4-carboxamide] | < 1 | 100 to 500
Cn1ccc(Nc2ncnc(-c3ccc(CNC(=O)c4nc(C(C)(C)C)no4)c(C(F)F)c3F)n2)n1 [Compound 66, 3-(tert-butyl)-N-(2-(difluoromethyl)-3-fluoro-4-(4-((1-methyl-1H-pyrazol-3-yl)amino)-1,3,5-triazin-2-yl)benzyl)-1,2,4-oxadiazole-5-carboxamide] | 1 to 10 | 500 to 10000
Cn1cc(Nc2ncnc(-c3ccc(CNC(=O)c4nc(C(C)(C)C)no4)c(Cl)c3F)n2)cn1 [Compound 29, 3-(tert-butyl)-N-(2-chloro-3-fluoro-4-(4-((1-methyl-1H-pyrazol-4-yl)amino)-1,3,5-triazin-2-yl)benzyl)-1,2,4-oxadiazole-5-carboxamide] | < 1 | < 100
Cc1cc(-c2ncnc(Nc3cnn(C)c3)n2)ccc1CNC(=O)c1nnn(C(C)(C)C)n1 [Compound 39, 2-(tert-butyl)-N-(2-methyl-4-(4-((1-methyl-1H-pyrazol-4-yl)amino)-1,3,5-triazin-2-yl)benzyl)-2H-tetrazole-5-carboxamide] | < 1 | < 100
Cc1cc(-c2ncnc(Nc3ccn(C)n3)n2)ccc1CNC(=O)c1cc(C(C)(C)C)no1 [Compound 43, 3-(tert-butyl)-N-(2-methyl-4-(4-((1-methyl-1H-pyrazol-3-yl)amino)-1,3,5-triazin-2-yl)benzyl)isoxazole-5-carboxamide] | 1 to 10 | 500 to 10000
C[C@@H](NC(=O)c1noc(C(C)(C)C)n1)c1ccc(-c2ncnc(Nc3ccn(C)n3)n2)c(F)c1Cl [Compound 101, (R)-5-(tert-butyl)-N-(1-(2-chloro-3-fluoro-4-(4-((1-methyl-1H-pyrazol-3-yl)amino)-1,3,5-triazin-2-yl)phenyl)ethyl)-1,2,4-oxadiazole-3-carboxamide] | < 1 | 500 to 10000
Cn1cc(Nc2ncnc(-c3ccc4c(c3)CN(CC(F)(F)F)CC[C@H]4NC(=O)c3nc(C(C)(C)C)co3)n2)cn1 [Compound 93, 4-tert-butyl-N-[(5R)-8-[4-[(1-methylpyrazol-4-yl)amino]-1,3,5-triazin-2-yl]-2-(2,2,2-trifluoroethyl)-1,3,4,5-tetrahydro-2-benzazepin-5-yl]oxazole-2-carboxamide] | < 1 | < 100
Cc1cc(-c2ncnc(Nc3ccn(C)n3)n2)ccc1CNC(=O)c1cc(C(C)(C)C)on1 [Compound 42, 5-(tert-butyl)-N-(2-methyl-4-(4-((1-methyl-1H-pyrazol-3-yl)amino)-1,3,5-triazin-2-yl)benzyl)isoxazole-3-carboxamide] | 1 to 10 | 500 to 10000
Cc1c(-c2ncnc(Nc3cnn(C)c3)n2)ccc([C@@H](C)NC(=O)c2noc(C(C)(C)C)n2)c1Cl [Compound 77, (R)-5-(tert-butyl)-N-(1-(2-chloro-3-methyl-4-(4-((1-methyl-1H-pyrazol-4-yl)amino)-1,3,5-triazin-2-yl)phenyl)ethyl)-1,2,4-oxadiazole-3-carboxamide] | < 1 | 100 to 500
Cc1cc(-c2ncnc(Nc3cnn(C)c3)n2)ccc1CNC(=O)c1nc(C2(CF)CC2)no1 [Compound 48, 3-(1-(fluoromethyl)cyclopropyl)-N-(2-methyl-4-(4-((1-methyl-1H-pyrazol-4-yl)amino)-1,3,5-triazin-2-yl)benzyl)-1,2,4-oxadiazole-5-carboxamide] | < 1 | 100 to 500
Cn1cc(Nc2ncnc(-c3cc4c(cc3F)[C@H](NC(=O)c3nc(C(C)(C)C)no3)CCCC4)n2)cn1 [Compound 87, (R)-3-(tert-butyl)-N-(3-fluoro-2-(4-((1-methyl-1H-pyrazol-4-yl)amino)-1,3,5-triazin-2-yl)-6,7,8,9-tetrahydro-5H-benzo[7]annulen-5-yl)-1,2,4-oxadiazole-5-carboxamide] | < 1 | < 100
Cc1cc(-c2ncnc(Nc3ccn(C)n3)n2)ccc1CNC(=O)c1noc(C(C)(C)CF)n1 [Compound 44, 5-(1-fluoro-2-methylpropan-2-yl)-N-(2-methyl-4-(4-((1-methyl-1H-pyrazol-3-yl)amino)-1,3,5-triazin-2-yl)benzyl)-1,2,4-oxadiazole-3-carboxamide] | 1 to 10 | 100 to 500
Cc1c([C@@H](C)NC(=O)c2nc(C(C)(C)C)no2)ccc(-c2ncnc(Nc3cnn(C)c3)n2)c1Cl [Compound 80, (R)-3-(tert-butyl)-N-(1-(3-chloro-2-methyl-4-(4-((1-methyl-1H-pyrazol-4-yl)amino)-1,3,5-triazin-2-yl)phenyl)ethyl)-1,2,4-oxadiazole-5-carboxamide] | < 1 | 100 to 500
Cc1c(CNC(=O)c2noc(C3(C(F)(F)F)CC3)n2)ccc(-c2ncnc(Nc3ccn(C)n3)n2)c1F [Compound 52, N-(3-fluoro-2-methyl-4-(4-((1-methyl-1H-pyrazol-3-yl)amino)-1,3,5-triazin-2-yl)benzyl)-5-(1-(trifluoromethyl)cyclopropyl)-1,2,4-oxadiazole-3-carboxamide] | 1 to 10 | 500 to 10000
Cc1c([C@@H](C)NC(=O)c2noc(C(C)(C)C)n2)ccc(-c2ncnc(Nc3cnn(C)c3)n2)c1Cl [Compound 81, (R)-5-(tert-butyl)-N-(1-(3-chloro-2-methyl-4-(4-((1-methyl-1H-pyrazol-4-yl)amino)-1,3,5-triazin-2-yl)phenyl)ethyl)-1,2,4-oxadiazole-3-carboxamide] | < 1 | < 100
Cn1ccc(Nc2ncnc(-c3ccc4c(c3)CN(CC(F)(F)F)CC[C@H]4NC(=O)c3nc(C(C)(C)C)co3)n2)n1 [Compound 96, (R)-4-(tert-butyl)-N-(8-(4-((1-methyl-1H-pyrazol-3-yl)amino)-1,3,5-triazin-2-yl)-2-(2,2,2-trifluoroethyl)-2,3,4,5-tetrahydro-1H-benzo[c]azepin-5-yl)oxazole-2-carboxamide] | 1 to 10 | 500 to 10000
